Structures can show the parent of a compound that is named as a salt.
Assays:
[1] = biological target: T1, TBK1 (Homo sapiens, UniProt Q9UHD2); experiment: TBK biochemical assay; settings: 10 point 1:4 dose response, 30 uM top concentration, 90 min at 25° C., LabChip EZ Reader II; read-out: TBK1_IC50
T1 sequence (Q9UHD2 1-729): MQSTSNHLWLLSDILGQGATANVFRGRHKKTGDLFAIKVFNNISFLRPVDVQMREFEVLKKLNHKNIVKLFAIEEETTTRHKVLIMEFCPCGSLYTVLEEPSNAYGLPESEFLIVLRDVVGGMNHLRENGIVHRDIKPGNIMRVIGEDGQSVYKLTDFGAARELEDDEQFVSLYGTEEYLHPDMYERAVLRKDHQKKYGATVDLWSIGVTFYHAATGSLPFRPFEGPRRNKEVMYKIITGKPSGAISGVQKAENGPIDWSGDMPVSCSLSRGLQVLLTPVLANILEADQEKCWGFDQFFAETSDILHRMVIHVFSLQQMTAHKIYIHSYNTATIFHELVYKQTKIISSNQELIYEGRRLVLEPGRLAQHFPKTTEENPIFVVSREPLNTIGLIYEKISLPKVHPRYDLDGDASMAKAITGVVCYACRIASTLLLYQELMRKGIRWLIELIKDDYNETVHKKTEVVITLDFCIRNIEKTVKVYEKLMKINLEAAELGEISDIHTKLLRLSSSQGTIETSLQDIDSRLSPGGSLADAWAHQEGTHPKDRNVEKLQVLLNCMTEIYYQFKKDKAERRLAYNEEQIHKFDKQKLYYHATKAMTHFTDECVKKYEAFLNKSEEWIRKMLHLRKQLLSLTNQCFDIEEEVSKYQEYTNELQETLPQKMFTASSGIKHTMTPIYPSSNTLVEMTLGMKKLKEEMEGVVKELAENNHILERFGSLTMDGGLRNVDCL
Outline: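 Read-out was a Caliper LabChip mobility-shift assay, run after a 90-min, 25 °C reaction of TBK1 with substrate and compounds, quenched with stop buffer. Control wells received staurosporine at 10 uM final.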

[2] = biological target: T2, IKKε (Homo sapiens, UniProt Q14164); experiment: IKKε biochemical assay; settings: 10 point 1:4 dose response, 30 uM top concentration, 90 min at 25° C., LabChip EZ Reader II; read-out: IKKε_IC50
T2 sequence (Q14164 1-716): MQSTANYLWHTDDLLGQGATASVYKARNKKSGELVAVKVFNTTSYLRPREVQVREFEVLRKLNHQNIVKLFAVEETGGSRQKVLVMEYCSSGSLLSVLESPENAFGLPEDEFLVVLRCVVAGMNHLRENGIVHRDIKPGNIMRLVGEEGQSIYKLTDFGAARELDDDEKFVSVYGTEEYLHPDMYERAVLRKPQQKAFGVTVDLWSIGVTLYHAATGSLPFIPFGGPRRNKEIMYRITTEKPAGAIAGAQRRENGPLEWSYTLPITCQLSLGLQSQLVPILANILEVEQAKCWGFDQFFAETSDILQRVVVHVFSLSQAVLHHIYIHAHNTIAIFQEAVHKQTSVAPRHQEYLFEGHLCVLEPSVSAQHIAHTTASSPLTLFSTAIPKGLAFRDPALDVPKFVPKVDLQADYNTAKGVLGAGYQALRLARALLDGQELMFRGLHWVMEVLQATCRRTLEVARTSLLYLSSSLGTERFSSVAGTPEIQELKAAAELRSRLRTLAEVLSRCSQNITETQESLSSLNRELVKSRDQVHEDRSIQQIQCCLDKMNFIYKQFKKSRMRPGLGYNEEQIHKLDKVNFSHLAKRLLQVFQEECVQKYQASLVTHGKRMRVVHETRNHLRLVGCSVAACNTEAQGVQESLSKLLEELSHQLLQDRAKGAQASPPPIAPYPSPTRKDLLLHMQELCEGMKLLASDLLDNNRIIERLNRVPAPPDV
Outline: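 Mobility-shift LabChip read-out followed a 90 min, 25° C. reaction of IKKε with substrate and test compound, with DMSO held at 1% final. Reactions were ended with stop buffer. Wells with 10 uM final staurosporine defined complete inhibition, and DMSO-only wells the uninhibited level.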

Compound	IC50 [1] [µM]	IC50 [2] [µM]
COc1nc(Nc2nccc(-c3ccc(O[C@H]4CCN(C(=O)c5cnn[nH]5)C[C@H]4F)c(C#N)c3)n2)ccc1N1CCN(C2COC2)CC1 [Example 115, 2-[[(3R,4S)-3-fluoro-1-[(1H-1,2,3-triazol-5-yl)carbonyl]piperidin-4-yl]oxy]-5-[2-([6-methoxy-5-[4-(oxetan-3-yl)piperazin-1-yl]pyridin-2-yl]amino)pyrimidin-4-yl]benzonitrile]	< 0.1	< 0.1
COc1nc(Nc2nccc(-c3ccc(OC4CCOCC4)c(C#N)c3)n2)ccc1C(=O)N1CC2CCC1CN2C (stereo not drawn) [Example 18, 5-(2-[[6-methoxy-5-([5-methyl-2,5-diazabicyclo[2.2.2]octan-2-yl]carbonyl)pyridin-2-yl]amino]pyrimidin-4-yl)-2-(oxan-4-yloxy)benzonitrile]	< 0.1	< 0.1
N#Cc1cc(-c2ccnc(Nc3ccc(C4CCN(C5COC5)CC4)cc3)n2)ccc1OC1CCNCC1(F)F (stereo not drawn) [Example 150, 2-(3,3-Difluoro-piperidin-4-yloxy)-5-{2-[4-(1-oxetan-3-yl-piperidin-4-yl)-phenylamino]-pyrimidin-4-yl}-benzonitrile hydrochloride]	< 0.1	< 0.1
COc1nc(Nc2nccc(-c3ccc(O[C@H]4CCN(C)C[C@H]4F)c(C#N)c3)n2)ccc1N1CCN(C)CC1 [Example 96, 2-(((3R,4S)-3-fluoro-1-methylpiperidin-4-yl)oxy)-5-(2-((6-methoxy-5-(4-methylpiperazin-1-yl)pyridin-2-yl)amino)pyrimidin-4-yl)benzonitrile]	< 0.1	< 0.1
Cc1nc(C(=O)N2CCC(Oc3ccc(-c4ccnc(Nc5ccc(N6CCN(C7COC7)CC6)cc5)n4)cc3C#N)CC2)n[nH]1 [Example 273, 2-[[1-(5-methyl-1H-1,2,4-triazole-3-carbonyl)piperidin-4-yl]oxy]-5-[2-([4-[4-(oxetan-3-yl)piperazin-1-yl]phenyl]amino)pyrimidin-4-yl]benzonitrile]	< 0.1	< 0.1
COc1nc(Nc2nccc(-c3ccc(OC4CCOCC4)c(C#N)c3)n2)ccc1C(=O)NCCO [Example 2, 6-([4-[3-cyano-4-(oxan-4-yloxy)phenyl]pyrimidin-2-yl]amino)-N-(2-hydroxyethyl)-2-methoxypyridine-3-carboxamide]	< 0.1	< 0.1
COc1nc(Nc2nccc(-c3ccc(OC4CCOCC4)c(C#N)c3)n2)ccc1N(C)CCN(C)C [Example 34, 5-[2-[(5-[[2-(dimethylamino)ethyl](methyl)amino]-6-methoxypyridin-2-yl)amino]pyrimidin-4-yl]-2-(oxan-4-yloxy)benzonitrile hydrochloride]	< 0.1	< 0.1
COc1cccc(Nc2nccc(-c3ccc(OC4CCN(C(=O)[C@@H](O)CO)CC4(F)F)c(C#N)c3)n2)n1 (stereo partly drawn) [Example 242, 2-[1-((S)-2,3-Dihydroxy-propionyl)-3,3-difluoro-piperidin-4-yloxy]-5-[2-(6-methoxy-pyridin-2-ylamino)-pyrimidin-4-yl]-benzonitrile]	< 0.1	< 0.1
COc1nc(Nc2nccc(-c3ccc(OC4CCNCC4(F)F)c(C#N)c3)n2)ccc1N1CCN(C2COC2)C[C@H]1C (stereo partly drawn) [Example 129, 2-(3,3-Difluoro-piperidin-4-yloxy)-5-{2-[6-methoxy-5-((R)-2-methyl-4-oxetan-3-yl-piperazin-1-yl)-pyridin-2-ylamino]-pyrimidin-4-yl}-benzonitrile]	< 0.1	< 0.1
COc1nc(Nc2nccc(-c3ccc(OC4CCNCC4(F)F)c(C#N)c3)n2)ccc1N1CCN(C)C[C@H]1C (stereo partly drawn) [Example 108, 2-(3,3-Difluoro-piperidin-4-yloxy)-5-{2-[5-((R)-2,4-dimethyl-piperazin-1-yl)-6-methoxy-pyridin-2-ylamino]-pyrimidin-4-yl}-benzonitrile]	< 0.1	< 0.1
COc1cccc(Nc2nccc(-c3ccc(O[C@@H]4CCN(C(=O)[C@H](C)O)CC4(F)F)c(C#N)c3)n2)n1 [Example 241, 2-[[(4R)-3,3-difluoro-1-[(2S)-2-hydroxypropanoyl]piperidin-4-yl]oxy]-5-[2-[(6-methoxypyridin-2-yl)amino]pyrimidin-4-yl]benzonitrile]	< 0.1	< 0.1

Results, then the compound that gave them:

IC50 [1] [µM]	IC50 [2] [µM]	Compound
< 0.1	< 0.1	COc1nc(Nc2nccc(-c3ccc(OC4CCN(C(=O)[C@@H]5CCC(=O)N5)CC4(F)F)c(C#N)c3)n2)ccc1N1CCN(C2COC2)CC1 (stereo partly drawn) [Example 256, 2,2-[3,3-Difluoro-1-((S)-5-oxo-pyrrolidine-2-carbonyl)-piperidin-4-yloxy]-5-{2-[6-methoxy-5-(4-oxetan-3-yl-piperazin-1-yl)-pyridin-2-ylamino]-pyrimidin-4-yl}-benzonitrile]
< 0.1	< 0.1	COc1nc(Nc2nccc(-c3ccc(OC4CCN(C(=O)[C@H](C)O)CC4(F)F)c(C#N)c3)n2)ccc1N1CCN(C2COC2)[C@H](C)C1 (stereo partly drawn) [Example 128, 2-[3,3-Difluoro-1-((S)-2-hydroxy-propionyl)-piperidin-4-yloxy]-5-{2-[6-methoxy-5-((R)-3-methyl-4-oxetan-3-yl-piperazin-1-yl)-pyridin-2-ylamino]-pyrimidin-4-yl}-benzonitrile]
< 0.1	0.1 to 1	COc1nc(Nc2nccc(-c3ccc(OCC4CN(C(=O)[C@H](C)O)C4)c(C#N)c3)n2)ccc1N1CCN(C2COC2)CC1 [Example 279, 2-([1-[(2S)-2-hydroxypropanoyl]azetidin-3-yl]methoxy)-5-[2-([6-methoxy-5-[4-(oxetan-3-yl)piperazin-1-yl]pyridin-2-yl]amino)pyrimidin-4-yl]benzonitrile]
< 0.1	< 0.1	COc1nc(Nc2nccc(-c3ccc(O[C@@H]4CCN(C(=O)[C@H](C)O)C[C@H]4F)c(C#N)c3)n2)ccc1N1CCN(C2COC2)CC1 [Example 202, 2-[(3R,4R)-3-Fluoro-1-((S)-2-hydroxy-propionyl)-piperidin-4-yloxy]-5-{2-[6-methoxy-5-(4-oxetan-3-yl-piperazin-1-yl)-pyridin-2-ylamino]-pyrimidin-4-yl}-benzonitrile]
< 0.1	< 0.1	COc1nc(Nc2nccc(-c3ccc(OC4CCN(C(=O)[C@@H](O)CO)CC4(F)F)c(C#N)c3)n2)ccc1N1CCN(C2COC2)[C@H](C)C1 (stereo partly drawn) [Example 262, 2-[1-((S)-2,3-Dihydroxy-propionyl)-3,3-difluoro-piperidin-4-yloxy]-5-{2-[6-methoxy-5-((R)-3-methyl-4-oxetan-3-yl-piperazin-1-yl)-pyridin-2-ylamino]-pyrimidin-4-yl}-benzonitrile]
< 0.1	< 0.1	COc1nc(Nc2nccc(-c3ccc(OC4CCN(C(=O)C(C)C#N)CC4(F)F)c(C#N)c3)n2)ccc1N1CCN(C2COC2)CC1 (stereo not drawn) [Example 251, 2-[1-(2-Cyano-2-methyl-acetyl)-33-difluoro-piperidin-4-yloxy]-5-{2-[6-methoxy-5-(4-oxetan-3-yl-piperazin-1-yl)-pyridin-2-ylamino]-pyrimidin-4-yl}-benzonitrile]
< 0.1	< 0.1	COc1nc(Nc2nccc(-c3ccc(OC4CCN(C(=O)[C@@H](C)O)CC4(F)F)c(C#N)c3)n2)ccc1N1CCN(C)C[C@@H]1C (stereo partly drawn) [Example 111, 2-[3,3-Difluoro-1-((R)-2-hydroxy-propionyl)-piperidin-4-yloxy]-5-{2-[5-((S)-2,4-dimethyl-piperazin-1-yl)-6-methoxy-pyridin-2-ylamino]-pyrimidin-4-yl}-benzonitrile]
